Measured values published in patent publication US11879895B2, “Intercellular proximity labeling using eGRASP” (Seoul National University R&DB Foundation, priority 2018, dated 2024).

Assays:
HEK293T cells = assay: GRASP signal at the interface of separately nucleofected HEK293T cells; assay type: cell-based, human; conditions: pre- and post-constructs transduced into separate HEK293T cells through nucleofection
Text: According to still another embodiment of the present disclosure, the first labeling material or the second labeling material may further comprise a first binding-enhancing site or a second binding-enhancing site, respectively. Specifically, when the first labeling material and the second labeling material are located in close proximity, the first labeling material and the second labeling material are bound to each other to generate a signal. In order to assist the binding, the first labeling material and the second labeling material may further comprise a first binding-enhancing site and a second binding-enhancing site, respectively. The first binding-enhancing site and the second binding-enhancing site may form a binding with each other. Therefore, when the first labeling material and the second labeling material are adjacent to each other, the first binding-enhancing site and the second binding-enhancing site are bound to assist the binding of the first labeling material and the second labeling material.
The upper figure of FIG. 5a is a result when either post-mGRASP or mCherry-binding pre-mGRASP co-expressing mTagBFP2 was transduced into HEK293T cells through nucleofection. […] Peptide p40 (APTYSPPPPP) was bound to a SH3 domain in the post-eGRASP structure to enhance GRASP signals. […]

DG = assay: Validation of the Fos-rtTA system with seizures; assay type: in vivo, mice; conditions: injection of seizure inducer, doxycycline 2 hours before
Experimental: FIGS. 8a to 8c show the results of validation experiments of the Fos-rtTA system with seizures. FIG. 8a is a schematic illustration of the injected AAV, in which the nuclear target mEmerald (mEmerald-Nuc) was regulated by the TRE3G promoter that were regulated by rtTA3G expressed by the Fos promoter, and the nuclear target mCherry regulated by CaMKIIα was used for an expression control.
Doxycycline was injected 2 hours before seizure induction or contextual fear conditioning (CFC) to successfully label activated cells during each event (FIGS. 8A to 8C and FIGS. 9A to 9D). FIGS. 8a to 8c show the results of validation experiments of the Fos-rtTA system with seizures. FIG. 8a is a schematic illustration of the injected AAV, in which the nuclear target mEmerald (mEmerald-Nuc) was regulated by the TRE3G promoter regulated by rtTA3G expressed by the Fos promoter, and the nuclear target mCherry regulated by CaMKIIα was used as an expression control. […] FIGS. 9a to 9d show the results of the verification experiment of the Fos-rtTA system using CFC. […] FIG. 9b is a diagram showing a timetable of actions used in the experiment.

Abl SH3 peptide = biological target: T1, Abl SH3 peptide (Homo sapiens, UniProt P00519); assay: Binding of Abl SH3 binding peptide to Abl SH3 peptide of post-eGRASP; conditions: p32 compared with p30
T1 construct: IgG kappa signal peptide (N)
T1 sequence (P00519 with tags, fused parts or gaps): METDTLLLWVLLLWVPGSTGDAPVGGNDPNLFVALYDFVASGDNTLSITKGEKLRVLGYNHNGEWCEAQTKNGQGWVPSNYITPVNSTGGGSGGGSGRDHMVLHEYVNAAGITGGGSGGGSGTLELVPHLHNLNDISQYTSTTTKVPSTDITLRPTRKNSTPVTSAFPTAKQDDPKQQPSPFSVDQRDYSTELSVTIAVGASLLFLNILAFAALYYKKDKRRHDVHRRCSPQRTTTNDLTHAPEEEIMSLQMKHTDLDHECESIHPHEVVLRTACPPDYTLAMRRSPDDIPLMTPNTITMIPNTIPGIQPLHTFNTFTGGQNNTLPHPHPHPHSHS
Experimental: (3) Abl SH3 binding peptide contained in Pre-eGRASP had p30 (APTKPPPLPP) or p32 (SPSYSPPPPP) sequence. p32 was bound more strongly to Abl SH3 peptide of post-eGRASP than p30. Therefore, in this example, a cyan pre-eGRASP designed to be continuously expressed was prepared using p30, and in this example, yellow pre-eGRASP designed to start to be expressed from a specific time point when memory starts to be formed was prepared using p32, thereby matching the balance of cyan fluorescence and yellow fluorescence.

## S72A: Additional S72A mutation in strands 1-10 of the split GFP; SEQ ID NO: 2
HEK293T cells
  GRASP signal at the interface between cells: GRASP signal increases

## C1CCc2nnnn2CC1 [Pentylenetetrazol]
DG
  mEmerald-Nuc signal in DG: strong mEmerald-Nuc signal

## SPSYSPPPPP ((synthetic) p32)
Abl SH3 peptide
  binding to Abl SH3 peptide, relative: more strongly
